From ChEMBL document CHEMBL1158525, “New heteroaryl nitrones with spin trap properties: Identification of a 4-furoxanyl derivative with excellent properties to be used in biological systems” (Bioorg Med Chem, 2010)
Active and inactive are the calls of the source.

Assays:
Format in all cases: functional
Conditions in all cases: Microsome
Trypanosoma cruzi [1] = assay: Antioxidant activity in Trypanosoma cruzi microsomes assessed as inhibition of NF-induced free radicals generation by EPR-based spin trap technique
Trypanosoma cruzi [2] = assay: Antioxidant activity in Trypanosoma cruzi microsomes assessed as inhibition of TBfx2-induced free radicals generation by EPR-based spin trap technique
Trypanosoma cruzi [3] = assay: Antioxidant activity in Trypanosoma cruzi microsomes assessed as inhibition of TBfx1-induced free radicals generation by EPR-based spin trap technique
Trypanosoma cruzi [4] = assay: Antioxidant activity in Trypanosoma cruzi microsomes assessed as inhibition of PtCl2(NF)-induced free radicals generation by EPR-based spin trap technique

Measured: Activity

Cc1c(/C=[N+](\[O-])C(C)(C)C)no[n+]1[O-]
active: Trypanosoma cruzi [1] | Trypanosoma cruzi [2] | Trypanosoma cruzi [3] | Trypanosoma cruzi [4]
